Reference: patent publication US12048680B2, “Use of Gemfibrozil and derivative thereof for treatment and/or prevention of neurodegenerative disease” (Kunming Institute of Zoology Chinese Academy of Sciences, priority 2018, dated 2024)

System: APP/PS1ΔE9 mice
Test: Water maze test of spatial learning and memory
Assay type: in vivo, mouse
Experimental: Gemfibrozil was administered to 8-month-old APP/PS1ΔE9 mice (male and female halves). Gemfibrozil was first dissolved in dimethyl sulfoxide (DMSO) at a concentration of 50 mg/mL, and then diluted to a final concentration of 50 μg/mL with mouse drinking water to obtain a drug solution. The mice in the administration group were allowed to freely drink the drug solution containing gemfibrozil, in which the final concentration of DMSO in the solution was 0.1%; and the mice in the control group were allowed to drink water containing 0.1% DMSO freely. All drinking devices contained with Gemfibrozil were wrapped in aluminum foil to prevent decomposition by exposure. During dosing, the drug solution was replaced every 2 days. Mice were measured daily for water consumption. After 2 months of dosing, all mice were subjected to behavioural experiments. Mice were placed in the laboratory to be behaviourally tested one hour prior to the start of daily behavioural studies, and all behavioural experiments were completed between 9 and 17 o'clock. All experiments involving animals were approved by Animal Ethics Committee of the Kunming Institute of Zoology, CAS. According to the application, a water maze experiment was adopted to evaluate the learning and memory capacity of AD mice after Gemfibrozil was administered for 2 months. The parameters of the used water maze were as follows: a circular pool having a diameter of 120 cm, a height of 50 cm, and a water depth of about 30 cm; and a cylindrical plastic lifesaving platform having a diameter of 10 cm, a height of 29 cm, and submerged 1 cm below the water surface. The water temperature was kept at 20+1° C. During the test, in order to prevent the mice from seeing the platform, white plastic foam was added to the water to spread on the water surface evenly until the lifesaving platform could not be seen, and the water was replaced every two days. The circular pool was divided into four quadrants, and the lifesaving platform was placed in the center of the third quadrant. A camera was arranged right above the water maze and used for recording the movement track of the mice. Mice were placed from the rearing room into a room for the water maze experiment for 1 hour before the start of each day of the experiment. The mice were trained for 7 consecutive days. The starting position was randomly changed among the four quadrants, the mice were allowed to explore freely for 1 minute, and the time required for the mice to find a lifesaving platform (also known as latency) was measured. If the mouse was able to find the platform within 1 minute, it was allowed to sit on the platform for 20 seconds, so that it can remember the location of the lifesaving platform based on surrounding markers. […] Each mouse was trained at 90-minute intervals each day and randomly placed in the water maze in three different quadrants each day to look for the lifesaving platform. After 4 hours after the last training on the 7th day, the lifesaving platform of the water maze was removed. The mice were put into water, and the time, the distance and the speed of the mice around the lifesaving platform within 1 minute and the number of shuttles at the position of the lifesaving platform were measured, thereby evaluating the short-term memory capacity of the mice. After 72 hours after the last training on the 7th day, the lifesaving platform of the water maze was removed again. The mice were put into water, and the time, the distance and the speed of the mice around the lifesaving platform within 1 minute and the number of shuttles at the position of the lifesaving platform were measured, thereby evaluating the long-term memory capacity of the mice. During the experiment, the surrounding environment of the water maze should be kept consistent to avoid the influence of environmental factors. The behavior of the mice was followed and videotaped throughout the experiment using SMART 3.0 software (Panlab HARVARD, MA, USA). […]

Which results are given for `Cc1ccc(C)c(OCCCC(C)(C)C(=O)O)c1` [Gemfibrozil, 2,2-dimethyl-5-(2,5-dimethylphenoxy) pentanoic acid]?
learning ability (8-month-old APP/PS1ΔE9 mice, 50 μg/mL in drinking water for 2 months, 7 days of training, vs control group): significantly improved; short-term memory capacity (4 hours after the last training, platform removed, vs control group): significantly improved; long-term memory capacity (72 hours after the last training, platform removed): significantly improved; escape time (latency) required to reach the lifesaving platform (APP/PS1ΔE9 mice, 50 μg/mL in drinking water for 2 months, training phase, vs control group (A in FIG. 1)): less than the control group; range required to reach the lifesaving platform (APP/PS1ΔE9 mice, 50 μg/mL in drinking water for 2 months, training phase, vs control group (B in FIG. 1)): less than the control group; lingering time in the target quadrant (long-term memory, 72 hours after the last training (G in FIG. 1)): increase; distance in the target quadrant (long-term memory, 72 hours after the last training (H in FIG. 1)): increase; number of shuttles at the position of the lifesaving platform (long-term memory, 72 hours after the last training (I in FIG. 1)): increases; lingering time in the target quadrant (short-term memory, 4 hours after the last training (D in FIG. 1)): increase; distance in the target quadrant (short-term memory, 4 hours after the last training (E in FIG. 1)): increase; number of shuttles at the position of the lifesaving platform (short-term memory, 4 hours after the last training (F in FIG. 1)): increases
